molecular target: T1, POLγA:G848S (Homo sapiens, UniProt P54098, G848S); experiment: DNA polymerization assay, POLγA:G848S mutant; assay type: biochemical; conditions: stimulation of polymerase activity, primed M13mp18 ssDNA, 37° C. 2 hours; read-out: G848S AC50
T1 sequence (P54098 1-1239 G848S): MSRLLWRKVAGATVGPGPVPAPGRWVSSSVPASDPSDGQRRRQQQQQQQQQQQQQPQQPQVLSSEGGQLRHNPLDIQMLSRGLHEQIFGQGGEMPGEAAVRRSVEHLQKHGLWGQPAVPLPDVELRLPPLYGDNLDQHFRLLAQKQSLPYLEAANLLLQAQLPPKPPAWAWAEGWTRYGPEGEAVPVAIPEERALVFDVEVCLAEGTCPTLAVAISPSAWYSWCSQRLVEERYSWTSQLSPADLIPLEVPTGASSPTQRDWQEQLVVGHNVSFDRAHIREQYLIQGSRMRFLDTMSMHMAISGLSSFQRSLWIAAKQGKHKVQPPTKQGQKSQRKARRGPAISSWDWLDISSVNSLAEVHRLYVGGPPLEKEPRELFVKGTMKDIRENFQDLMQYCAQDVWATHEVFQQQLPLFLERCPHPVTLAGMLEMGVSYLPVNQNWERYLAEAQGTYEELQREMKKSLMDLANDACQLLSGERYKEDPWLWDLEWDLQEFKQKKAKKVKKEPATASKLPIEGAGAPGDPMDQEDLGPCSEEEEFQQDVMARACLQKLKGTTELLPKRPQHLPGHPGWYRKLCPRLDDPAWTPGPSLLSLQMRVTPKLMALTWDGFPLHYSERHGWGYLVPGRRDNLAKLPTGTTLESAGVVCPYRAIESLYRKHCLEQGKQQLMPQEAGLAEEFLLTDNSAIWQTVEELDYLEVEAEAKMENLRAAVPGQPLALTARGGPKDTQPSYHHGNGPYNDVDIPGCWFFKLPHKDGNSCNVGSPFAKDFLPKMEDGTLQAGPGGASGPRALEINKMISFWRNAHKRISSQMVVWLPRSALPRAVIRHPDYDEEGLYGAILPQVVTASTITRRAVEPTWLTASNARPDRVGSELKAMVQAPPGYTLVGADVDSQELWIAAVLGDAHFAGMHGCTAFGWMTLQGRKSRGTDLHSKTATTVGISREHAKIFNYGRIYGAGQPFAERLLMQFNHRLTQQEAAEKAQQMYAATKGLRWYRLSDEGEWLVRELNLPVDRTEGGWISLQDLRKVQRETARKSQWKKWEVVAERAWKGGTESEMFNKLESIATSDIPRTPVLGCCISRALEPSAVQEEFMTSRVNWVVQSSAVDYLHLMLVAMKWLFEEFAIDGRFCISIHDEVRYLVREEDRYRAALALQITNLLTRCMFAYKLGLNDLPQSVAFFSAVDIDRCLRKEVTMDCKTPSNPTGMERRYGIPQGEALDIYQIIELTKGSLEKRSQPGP
T1 sequence (Q9UHN1 1-485 partner): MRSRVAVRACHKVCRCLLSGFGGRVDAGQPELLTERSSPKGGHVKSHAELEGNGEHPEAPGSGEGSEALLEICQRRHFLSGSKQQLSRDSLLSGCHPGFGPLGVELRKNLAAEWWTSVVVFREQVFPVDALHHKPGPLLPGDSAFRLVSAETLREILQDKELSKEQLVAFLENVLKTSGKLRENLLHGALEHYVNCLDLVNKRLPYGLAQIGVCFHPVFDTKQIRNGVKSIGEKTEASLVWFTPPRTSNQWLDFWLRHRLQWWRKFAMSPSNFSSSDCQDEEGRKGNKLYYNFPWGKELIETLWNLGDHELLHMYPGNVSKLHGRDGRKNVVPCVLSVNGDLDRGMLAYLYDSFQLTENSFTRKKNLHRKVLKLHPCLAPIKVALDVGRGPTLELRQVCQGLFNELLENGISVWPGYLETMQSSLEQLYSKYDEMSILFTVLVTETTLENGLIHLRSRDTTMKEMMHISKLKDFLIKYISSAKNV

AC50 | SMILES
> 100 µM | Cc1c(Cl)cccc1S(=O)(=O)Nc1csc(-c2ccccc2)n1 [Example 154, 3-chloro-2-methyl-N-(2-phenylthiazol-4-yl)benzenesulfonamide]
4 µM | COc1ccccc1-c1nc(NS(=O)(=O)c2cc(C)c(Cl)cc2C)cs1 [Example 155, 4-chloro-N-(2-(2-methoxyphenyl)thiazol-4-yl)-2,5-dimethylbenzenesulfonamide]
> 100 µM | Cc1cc(S(=O)(=O)Nc2nc(-c3ccccc3)co2)c(C)cc1Cl [Example 157, 4-chloro-2,5-dimethyl-N-(4-phenyloxazol-2-yl)benzenesulfonamide]
> 100 µM | Cc1cc(S(=O)(=O)N[C@H]2CCN(c3ccccc3)C2)c(C)cc1Cl [Example 158, (S)-4-chloro-2,5-dimethyl-N-(1-phenylpyrrolidin-3-yl)benzenesulfonamide]
> 100 µM | Cc1cc(S(=O)(=O)Nc2nc(-c3ccccc3)cn2C)c(C)cc1Cl [Example 159, 4-chloro-2,5-dimethyl-N-(1-methyl-4-phenyl-1H-imidazol-2-yl)benzenesulfonamide]
14 µM | Cc1cc(S(=O)(=O)Nc2cccc(C(=O)N3CCC(F)(F)C3)c2)c(C)cc1Cl [Example 160, 4-chloro-N-(3-(3,3-difluoropyrrolidine-1-carbonyl)phenyl)-2,5-dimethylbenzenesulfonamide]
31 µM | Cc1cc(S(=O)(=O)N[C@H]2CCCN(c3ccccc3)C2)c(C)cc1Cl [Example 161, (S)-4-chloro-2,5-dimethyl-N-(1-phenylpiperidin-3-yl)benzenesulfonamide]
13 µM | Cc1cc(S(=O)(=O)Nc2cccc(C(=O)N3CCCC34CC4)c2)c(C)cc1Cl [Example 162, N-(3-(4-azaspiro[2.4]heptane-4-carbonyl)phenyl)-4-chloro-2,5-dimethylbenzenesulfonamide]
37 µM | CC(=O)N1CCC(c2nc(NS(=O)(=O)c3cc(C)c(Cl)cc3C)cs2)CC1 [Example 163, N-(2-(1-acetylpiperidin-4-yl)thiazol-4-yl)-4-chloro-2,5-dimethylbenzenesulfonamide]
0.6 µM | Cc1cc(S(=O)(=O)Nc2csc(C(=O)N3CCCC3)n2)c(C)cc1Cl [Example 166, 4-chloro-2,5-dimethyl-N-(2-(pyrrolidine-1-carbonyl)thiazol-4-yl)benzenesulfonamide]
2 µM | Cc1cc(S(=O)(=O)Nc2csc(C3CCOCC3)n2)c(C)cc1Cl [Example 167, 4-chloro-2,5-dimethyl-N-(2-(tetrahydro-2H-pyran-4-yl)thiazol-4-yl)benzenesulfonamide]
> 100 µM | Cc1cc(S(=O)(=O)Nc2cn(Cc3ccccc3)cn2)c(C)cc1Cl [Example 168, N-(1-benzyl-1H-imidazol-4-yl)-4-chloro-2,5-dimethylbenzenesulfonamide]
> 100 µM | Cc1cc(S(=O)(=O)Nc2cn(-c3ccccc3)cn2)c(C)cc1Cl [Example 169, 4-chloro-2,5-dimethyl-N-(1-phenyl-1H-imidazol-4-yl)benzenesulfonamide]
> 10 µM | Cc1cc(S(=O)(=O)Nc2cn(C)c(-c3ccccc3)n2)c(C)cc1Cl [Example 170, 4-chloro-2,5-dimethyl-N-(1-methyl-2-phenyl-1H-imidazol-4-yl)benzenesulfonamide]
> 10 µM | Cc1cc(S(=O)(=O)Nc2cnn(-c3ccccc3)n2)c(C)cc1Cl [Example 171, 4-chloro-2,5-dimethyl-N-(2-phenyl-2H-1,2,3-triazol-4-yl)benzenesulfonamide]
> 10 µM | Cc1cc(S(=O)(=O)Nc2csc(C(=O)N(C)CC(N)=O)n2)c(C)cc1Cl [Example 172, N-(2-amino-2-oxoethyl)-4-((4-chloro-2,5-dimethylphenyl)sulfonamido)-N-methylthiazole-2-carboxamide]
2 µM | Cc1cc(S(=O)(=O)Nc2csc(-c3ccccn3)n2)c(C)cc1Cl [Example 173, 4-chloro-2,5-dimethyl-N-(2-(pyridin-2-yl)thiazol-4-yl)benzenesulfonamide]
0.4 µM | Cc1cc(S(=O)(=O)Nc2csc(C(=O)N3CCC[C@H]3C)n2)c(C)cc1Cl [Example 174, (R)-4-chloro-2,5-dimethyl-N-(2-(2-methylpyrrolidine-1-carbonyl)thiazol-4-yl)benzenesulfonamide]
1 µM | Cc1cc(S(=O)(=O)Nc2csc(C(=O)N3CCC[C@@H]3C)n2)c(C)cc1Cl [Example 175, (S)-4-chloro-2,5-dimethyl-N-(2-(2-methylpyrrolidine-1-carbonyl)thiazol-4-yl)benzenesulfonamide]
0.4 µM | Cc1cc(S(=O)(=O)Nc2csc(-c3ccncc3)n2)c(C)cc1Cl [Example 176, 4-chloro-2,5-dimethyl-N-(2-(pyridin-4-yl)thiazol-4-yl)benzenesulfonamide]
> 100 µM | Cc1cc(S(=O)(=O)Nc2csc(C(=O)N(CC(N)=O)C3CCCC3)n2)c(C)cc1Cl [Example 177, N-(2-amino-2-oxoethyl)-4-((4-chloro-2,5-dimethylphenyl)sulfonamido)-N-cyclopentylthiazole-2-carboxamide]
1 µM | Cc1cc(S(=O)(=O)Nc2csc(-n3cccn3)n2)c(C)cc1Cl [Example 178, N-(2-(1H-pyrazol-1-yl)thiazol-4-yl)-4-chloro-2,5-dimethylbenzenesulfonamide]
> 10 µM | Cc1cc(S(=O)(=O)Nc2csc(C(=O)N(CC(N)=O)C3CCCCC3)n2)c(C)cc1Cl [Example 179, N-(2-amino-2-oxoethyl)-4-((4-chloro-2,5-dimethylphenyl)sulfonamido)-N-cyclohexylthiazole-2-carboxamide]
> 10 µM | Cc1cc(S(=O)(=O)Nc2nc(-c3ccccc3)n(C)n2)c(C)cc1Cl [Example 180, 4-chloro-2,5-dimethyl-N-(1-methyl-5-phenyl-1H-1,2,4-triazol-3-yl)benzenesulfonamide]
0.7 µM | Cc1cc(S(=O)(=O)Nc2csc(-c3ccn(C)n3)n2)c(C)cc1Cl [Example 181, 4-chloro-2,5-dimethyl-N-(2-(1-methyl-1H-pyrazol-3-yl)thiazol-4-yl)benzenesulfonamide]
0.5 µM | Cc1cc(S(=O)(=O)Nc2csc(-c3cnn(C)c3)n2)c(C)cc1Cl [Example 183, 4-chloro-2,5-dimethyl-N-(2-(1-methyl-1H-pyrazol-4-yl)thiazol-4-yl)benzenesulfonamide]
24 µM | Cc1cc2cc(NS(=O)(=O)c3cc(C)c(Cl)cc3C)ccc2[nH]1 [Example 184, 4-chloro-2,5-dimethyl-N-(2-methyl-1H-indol-5-yl)benzenesulfonamide]

Source: US20260138961A1, “MODULATORS OF MITOCHONDRIAL DNA REPLICATION” (Pretzel Therapeutics, Inc., priority 2022, published 2026)
